Measured values published in article PMC8626469, “Helicobacter pylori FabX contains a [4Fe-4S] cluster essential for unsaturated fatty acid synthesis” (Nature Communications, 2021).

Molecular target: T1, FabX (Helicobacter pylori, UniProt A0A0B2E3F3)
T1 construct: gene C2842_03950; full length, 363 residues; expressed in E. coli BL21(DE3) Rosetta; monomer in the asymmetric unit; holds FMN and a [4Fe-4S] cluster
T1 sequence (A0A0B2E3F3 1-363): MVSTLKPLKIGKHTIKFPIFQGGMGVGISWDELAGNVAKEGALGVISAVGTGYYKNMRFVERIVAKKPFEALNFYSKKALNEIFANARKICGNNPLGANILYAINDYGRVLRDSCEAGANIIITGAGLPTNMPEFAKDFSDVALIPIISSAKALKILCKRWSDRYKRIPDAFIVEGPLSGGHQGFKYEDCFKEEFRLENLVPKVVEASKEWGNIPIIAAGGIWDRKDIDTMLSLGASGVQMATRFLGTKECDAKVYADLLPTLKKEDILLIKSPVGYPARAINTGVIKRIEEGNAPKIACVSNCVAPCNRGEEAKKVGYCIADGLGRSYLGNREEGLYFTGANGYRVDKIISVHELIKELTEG
Assay: X-ray crystal structure, […] Å
Assay type: binding
Settings: noncovalent in TIM-barrel core; also present in complexes with holo-ACP and octanoyl-ACP

## Cc1cc2nc3c(=O)[nH]c(=O)nc-3n(C[C@H](O)[C@H](O)[C@H](O)COP(=O)(O)O)c2cc1C [FMN]
  X-ray crystal structure, 1.7 Å: a FMN molecule is noncovalently bound inside the core
